The record followed here is patent US20250101038A1, “COMPOUNDS” (priority 2021, published 2025).

One assay deals with T1, 5-HT2A receptor (Homo sapiens, UniProt P28223).
T1 construct: host or cells: HEK293
Description: FLIPR Ca2+ flux functional assay, 5-HT2A. It is filed as cell-based. How it is done:
Activity at 5-HT2A, 5-HT2B and 5-HT2C receptors was determined using a FLIPR Ca^2+ flux assay at WuXi AppTec Co. Ltd. (Hong Kong) Discovery Biology Unit according to their standard protocols. Briefly, stably transfected cells expressing the receptor of interest (HEK293 for 5-HT2A and 5-HT2C; CHO-K1 for 5-HT2B) were grown and plated in a 384 well plate and incubated at 37° C. and 5% CO2 overnight. A 250 mM stock solution of probenecid in FLIPR calcium assay buffer (10 mL) was freshly prepared and combined with a fluorescent dye (Fluo-4 Direct) to give a final assay concentration of 2.5 mM. Reference compounds were 4-fold serially diluted and the screening compounds were 3-fold serially diluted in 100% DMSO for 10 points using Agilent Bravo, and 750 nL was added to a 384 well compound plate using Echo along with 30 μL assay buffer. The fluorescent dye was then added to the assay plate along with assay buffer to a final volume of […]. The cell plate was incubated for 50 min at 37° C. and 5% CO2 and placed into the FLIPR Tetra along with the compound plate. 10 μL of references and compounds were then transferred from the compound plate into the cell plate and the fluorescent signal was read.
A general note: A change in cytosolic calcium serves as a functional read-out for many receptors and channels.

The target in a further assay is T2, 5-HT2B receptor (Homo sapiens, UniProt P41595).
T2 construct: host or cells: CHO-K1
Description: cell-based.

In a further assay the target is T3, 5-HT2C receptor (Homo sapiens, UniProt P28335).
T3 construct: host or cells: HEK293
T3 sequence (P28335 33-458): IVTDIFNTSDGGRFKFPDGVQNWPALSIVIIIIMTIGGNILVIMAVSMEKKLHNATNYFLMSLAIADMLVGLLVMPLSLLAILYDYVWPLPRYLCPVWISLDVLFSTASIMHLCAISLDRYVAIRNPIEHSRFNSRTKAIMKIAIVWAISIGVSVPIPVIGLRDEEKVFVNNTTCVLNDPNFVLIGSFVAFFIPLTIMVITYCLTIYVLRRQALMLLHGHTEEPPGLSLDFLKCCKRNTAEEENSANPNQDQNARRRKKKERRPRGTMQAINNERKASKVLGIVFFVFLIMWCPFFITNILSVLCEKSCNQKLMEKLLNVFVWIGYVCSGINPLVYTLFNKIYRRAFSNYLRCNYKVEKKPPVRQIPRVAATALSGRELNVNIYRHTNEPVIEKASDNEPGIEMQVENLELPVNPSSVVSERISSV
Description: cell-based.

The mark [1] stands for this setting: agonist activity, Ca2+ flux, HEK293 cells.
The mark [2] stands for this setting: agonist activity, Ca2+ flux, HEK293 cells, read-out: 5-HT2A EC50.
Setting [3] is: agonist activity, Ca2+ flux, CHO-K1 cells.
Where [4] appears, read: agonist activity, Ca2+ flux, CHO-K1 cells, read-out: 5-HT2B EC50.
[5] abbreviates: agonist activity, Ca2+ flux, HEK293 cells, read-out: 5-HT2C EC50.

Like-named read-outs stand apart in the source and are kept apart here.

T1 sequence (P28223 whole entry): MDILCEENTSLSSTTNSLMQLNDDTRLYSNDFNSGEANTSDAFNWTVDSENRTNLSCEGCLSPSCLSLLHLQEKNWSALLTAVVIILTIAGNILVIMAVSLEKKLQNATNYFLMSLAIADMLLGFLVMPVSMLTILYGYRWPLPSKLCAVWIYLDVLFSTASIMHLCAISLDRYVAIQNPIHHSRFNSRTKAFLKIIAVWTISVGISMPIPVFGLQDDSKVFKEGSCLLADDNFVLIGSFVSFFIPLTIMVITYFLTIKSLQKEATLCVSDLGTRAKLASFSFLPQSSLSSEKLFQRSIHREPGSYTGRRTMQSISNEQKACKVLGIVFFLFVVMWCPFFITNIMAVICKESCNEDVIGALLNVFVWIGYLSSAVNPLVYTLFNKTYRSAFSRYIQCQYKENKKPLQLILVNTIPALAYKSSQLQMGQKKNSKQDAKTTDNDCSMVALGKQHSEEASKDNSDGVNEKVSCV
T2 sequence (P41595 whole entry): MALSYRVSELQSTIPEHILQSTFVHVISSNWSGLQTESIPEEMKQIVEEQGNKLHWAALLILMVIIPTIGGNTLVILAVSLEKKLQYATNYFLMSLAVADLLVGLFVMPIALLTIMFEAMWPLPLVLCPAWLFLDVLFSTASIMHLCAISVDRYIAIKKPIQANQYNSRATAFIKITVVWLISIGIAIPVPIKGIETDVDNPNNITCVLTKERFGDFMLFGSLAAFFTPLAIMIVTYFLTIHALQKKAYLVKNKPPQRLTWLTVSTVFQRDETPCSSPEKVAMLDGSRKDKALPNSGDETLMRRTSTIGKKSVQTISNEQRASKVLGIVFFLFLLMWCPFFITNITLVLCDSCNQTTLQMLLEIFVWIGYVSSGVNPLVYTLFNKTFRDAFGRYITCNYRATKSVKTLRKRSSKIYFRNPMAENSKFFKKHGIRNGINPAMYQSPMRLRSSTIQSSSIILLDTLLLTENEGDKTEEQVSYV

`CC(C)N(CCc1c[nH]c2ccc3ocnc3c12)C(C)C` [Example P-130, N-(2-(6H-oxazolo[4,5-e]indol-8-yl)ethyl)-N-isopropylpropan-2-amine]: the Emax at 5-HT2A receptor (setting [1]) worked out at 87.5%; on 5-HT2B receptor (setting [3]), 114%; on 5-HT2C receptor (setting [1]), 104%. In addition, the EC50 at 5-HT2A receptor (setting [2]) worked out at 18.1 nM; at 5-HT2B receptor (setting [4]) it was 7.54 nM; at 5-HT2C receptor (setting [5]), 203 nM.
For `CCN(CC)CCc1c[nH]c2c(F)cc(OC)cc12` [Example P-117, N,N-diethyl-2-(7-fluoro-5-methoxy-1H-indol-3-yl)ethan-1-amine], the Emax on 5-HT2A receptor (setting [1]) turned out to be 95.8%; on 5-HT2B receptor (setting [3]), 41.2%; at 5-HT2C receptor (setting [1]), 81.5%.
Consider `Cc1ccc(O)c2c(CCN(C(C)C)C(C)C)c[nH]c12` [Example P-90, 3-(2-(diisopropylamino)ethyl)-7-methyl-1H-indol-4-ol], for which the maximal response (Emax) on 5-HT2A receptor (setting [1]) came to 95.1%; on 5-HT2B receptor (setting [3]) it was 15.7%; on 5-HT2C receptor (setting [1]), 50.2%. The EC50 on 5-HT2A receptor (setting [2]) was 817 nM; at 5-HT2B receptor (setting [4]), no less than 10000 nM; at 5-HT2C receptor (setting [5]), 9970 nM.
Take `COc1cc(F)cc2[nH]cc(CCN(C(C)C)C(C)C)c12` [Example P-100, N-(2-(6-fluoro-4-methoxy-1H-indol-3-yl)ethyl)-N-isopropylpropan-2-amine]: the figures for the Emax on 5-HT2A receptor (setting [1]), on 5-HT2B receptor (setting [3]) and on 5-HT2C receptor (setting [1]) were 91.3%, 128% and 76.9%, respectively. For the same molecule, the results for the EC50 at 5-HT2A receptor (setting [2]), on 5-HT2B receptor (setting [4]) and on 5-HT2C receptor (setting [5]) were 51.4 nM, 436 nM and 864 nM, respectively.
Regarding `CCN(CCc1c[nH]c2cc(C)c(OC)cc12)C(C)C` [Example P-47, N-ethyl-N-(2-(5-methoxy-6-methyl-1H-indol-3-yl)ethyl)propan-2-amine], the Emax came out at 64.7% at 5-HT2A receptor (setting [1]), 43.2% on 5-HT2B receptor (setting [3]) and 80.8% at 5-HT2C receptor (setting [1]).
On to `CN(C)CCc1c[nH]c2cc3occc3cc12` [Example P-4, 2-(7H-furo[3,2-f]indol-5-yl)-N,N-dimethylethan-1-amine], for which the EC50 at 5-HT2A receptor was 9.39 nM; at 5-HT2B receptor, greater than 10000 nM; on 5-HT2C receptor it was 6.11 nM. Besides, the Emax stood at 70.4% on 5-HT2A receptor (setting [1]), 4.68% on 5-HT2B receptor (setting [3]) and 78.9% on 5-HT2C receptor (setting [1]).
Take `CC(C)N(C)CCc1c[nH]c2ccc3ocnc3c12` [Example P-128, N-(2-(6H-oxazolo[4,5-e]indol-8-yl)ethyl)-N-methylpropan-2-amine]: the results for the Emax at 5-HT2A receptor (setting [1]), on 5-HT2B receptor (setting [3]) and at 5-HT2C receptor (setting [1]) were 83.8%, 16.8% and 58%, respectively. In addition, the figures for the EC50 at 5-HT2A receptor (setting [2]), at 5-HT2B receptor (setting [4]) and on 5-HT2C receptor (setting [5]) were 14.3 nM, greater than 10000 nM and 67.8 nM, respectively.
For the molecule `COc1ccc2[nH]cc(CCN(C)C(C)C)c2c1C` [Example P-38, N-(2-(5-methoxy-4-methyl-1H-indol-3-yl)ethyl)-N-methylpropan-2-amine], the Emax on 5-HT2A receptor (setting [1]) stood at 83.3%; on 5-HT2B receptor (setting [3]), 45.4%; at 5-HT2C receptor (setting [1]), 23.7%. For the same molecule, the results for the concentration giving a half-maximal response (EC50) at 5-HT2A receptor (setting [2]), on 5-HT2B receptor (setting [4]) and on 5-HT2C receptor (setting [5]) were 189 nM, 659 nM and greater than 10000 nM, respectively.
For the molecule `COc1c(C)ccc2[nH]cc(CCN(C(C)C)C(C)C)c12` [Example P-63, N-isopropyl-N-(2-(4-methoxy-5-methyl-1H-indol-3-yl)ethyl)propan-2-amine], the Emax on 5-HT2A receptor (setting [1]) was found to be 72.7%; on 5-HT2B receptor (setting [3]), 70.2%; on 5-HT2C receptor (setting [1]), 49.4%. The EC50 was 1570 nM on 5-HT2A receptor (setting [2]), 2250 nM at 5-HT2B receptor (setting [4]) and 9660 nM on 5-HT2C receptor (setting [5]).
`COc1ccc(C)c2[nH]cc(CCN(C)C(C)C)c12` [Example P-81, N-(2-(4-methoxy-7-methyl-1H-indol-3-yl)ethyl)-N-methylpropan-2-amine]: the Emax on 5-HT2A receptor (setting [1]) was determined as 41.4%; at 5-HT2B receptor (setting [3]) it was 0.59%; at 5-HT2C receptor (setting [1]), 38.8%. For the same molecule, the EC50 is 126 nM on 5-HT2A receptor (setting [2]), greater than 10000 nM at 5-HT2B receptor (setting [4]) and 764 nM on 5-HT2C receptor (setting [5]).
On to `Cc1nc2c(ccc3[nH]cc(CCN(C(C)C)C(C)C)c32)o1` [Example P-135, N-isopropyl-N-(2-(2-methyl-6H-oxazolo[4,5-e]indol-8-yl)ethyl)propan-2-amine], for which the maximum response (Emax) on 5-HT2A receptor (setting [1]) was determined as 78.3%; at 5-HT2B receptor (setting [3]) it was 91.3%; on 5-HT2C receptor (setting [1]), 99.2%. Besides, the EC50 was determined as 25.1 nM on 5-HT2A receptor (setting [2]), 31.4 nM on 5-HT2B receptor (setting [4]) and 2070 nM at 5-HT2C receptor (setting [5]).
With `COc1cc(C)c2[nH]cc(CCN(C(C)C)C(C)C)c2c1` [Example P-58, N-isopropyl-N-(2-(5-methoxy-7-methyl-1H-indol-3-yl)ethyl)propan-2-amine], the Emax at 5-HT2A receptor (setting [1]) was 84%; at 5-HT2B receptor (setting [3]), 42.8%; at 5-HT2C receptor (setting [1]), 85.8%. Also, the results for the EC50 at 5-HT2A receptor (setting [2]), on 5-HT2B receptor (setting [4]) and at 5-HT2C receptor (setting [5]) were 475 nM, 604 nM and 1700 nM, respectively.
In the case of `CCN(CC)CCc1c[nH]c2cc(C)c(OC)cc12` [Example P-45, N,N-diethyl-2-(5-methoxy-6-methyl-1H-indol-3-yl)ethan-1-amine], the “5-HT2A Emax” value on 5-HT2A receptor (setting [1]) was determined as 81.54%. Moreover, the concentration giving a half-maximal response (EC50) on 5-HT2A receptor (setting [2]) is 78.2 nM; on 5-HT2B receptor (setting [4]), 846 nM; on 5-HT2C receptor (setting [5]), 700 nM. Moreover, on 5-HT2B receptor (setting [3]), the “5-HT2B Emax” value was determined as 23.83%. At 5-HT2C receptor (setting [1]), the “5-HT2C Emax” value came to 84.59%.
Regarding `Cc1nc2c(ccc3[nH]cc(CCN(C)C(C)C)c32)o1` [Example P-133, N-methyl-N-(2-(2-methyl-6H-oxazolo[4,5-e]indol-8-yl)ethyl)propan-2-amine], the maximal effect (Emax) on 5-HT2A receptor (setting [1]) worked out at 78.4%; on 5-HT2B receptor (setting [3]), 22.4%; on 5-HT2C receptor (setting [1]) it was 72.6%. The EC50 on 5-HT2A receptor (setting [2]) worked out at 27.9 nM; on 5-HT2B receptor (setting [4]) it was 68.6 nM; on 5-HT2C receptor (setting [5]), 894 nM.
In the case of `Cc1ccc2[nH]cc(CCN(C(C)C)C(C)C)c2c1O` [Example P-69, 3-(2-(diisopropylamino)ethyl)-5-methyl-1H-indol-4-ol], the Emax at 5-HT2A receptor (setting [1]) was 78.8%; at 5-HT2B receptor (setting [3]), 66.9%; on 5-HT2C receptor (setting [1]), 70.2%. The 50% effective concentration (EC50) at 5-HT2A receptor (setting [2]) was 245 nM; at 5-HT2B receptor (setting [4]), no less than 10000 nM; at 5-HT2C receptor (setting [5]), 3210 nM.
On to `CN(C)CCc1c[nH]c2cc(F)c(F)cc12` [Example P-153, 2-(5,6-difluoro-1H-indol-3-yl)-N,N-dimethylethan-1-amine], for which the Emax came out at 74.8% on 5-HT2A receptor (setting [1]), 10.6% at 5-HT2B receptor (setting [3]) and 93.6% at 5-HT2C receptor (setting [1]). The values for the EC50 at 5-HT2A receptor (setting [2]), on 5-HT2B receptor (setting [4]) and at 5-HT2C receptor (setting [5]) were 29.5 nM, greater than 10000 nM and 5.35 nM, respectively.
On to `CCN(CCc1c[nH]c2ccc(OC)c(C)c12)C(C)C` [Example P-40, N-ethyl-N-(2-(5-methoxy-4-methyl-1H-indol-3-yl)ethyl)propan-2-amine], for which the Emax at 5-HT2A receptor (setting [1]) was 78.4%; on 5-HT2B receptor (setting [3]) it was 33.8%; at 5-HT2C receptor (setting [1]), 0.71%. Further, the EC50 at 5-HT2A receptor (setting [2]) was 894 nM; at 5-HT2B receptor (setting [4]), greater than 10000 nM; at 5-HT2C receptor (setting [5]), greater than 10000 nM.
In the case of `COc1cc(F)cc2[nH]cc(CCN(C)C(C)C)c12` [Example P-97, N-(2-(6-fluoro-4-methoxy-1H-indol-3-yl)ethyl)-N-methylpropan-2-amine], the Emax at 5-HT2A receptor (setting [1]) came out at 65.4%; on 5-HT2B receptor (setting [3]), 14.2%; at 5-HT2C receptor (setting [1]) it was 59.8%. Further, the EC50 on 5-HT2A receptor (setting [2]) is 6.76 nM; on 5-HT2B receptor (setting [4]) it was greater than 10000 nM; at 5-HT2C receptor (setting [5]) it was 336 nM.
Regarding `COc1cc2c(CCN(C)C(C)C)c[nH]c2cc1C` [Example P-44, N-(2-(5-methoxy-6-methyl-1H-indol-3-yl)ethyl)-N-methylpropan-2-amine], the Emax at 5-HT2A receptor (setting [1]) was 72.6%; on 5-HT2B receptor (setting [3]), 7.11%; on 5-HT2C receptor (setting [1]) it was 70.8%.
Taken in the same sequence, the figures for `CCCN(CCC)CCc1c[nH]c2cc(C)c(OC)cc12` [Example P-48, N,N-dipropyl-2-(5-methoxy-6-methyl-1H-indol-3-yl)ethan-1-amine] were 77.5%, 56.8% and 74%.
For `CC(C)N(C)CCc1c[nH]c2c(F)c(F)ccc12` [Example P-161, N-(2-(6,7-difluoro-1H-indol-3-yl)ethyl)-N-methylpropan-2-amine], the Emax at 5-HT2A receptor (setting [1]) stood at 48%; on 5-HT2B receptor (setting [3]) it was 1.6%; on 5-HT2C receptor (setting [1]), 80.9%. In addition, the EC50 at 5-HT2A receptor (setting [2]) is 54.8 nM; at 5-HT2B receptor (setting [4]) it was greater than 10000 nM; at 5-HT2C receptor (setting [5]), 418 nM.

The term Emax denotes the maximal effect, on the per cent scale that the assay sets. As usually defined, the EC50 is the concentration at which the effect is half-maximal.
